Data set [1] deals with human CD34+ cells. Nature of the data set: Fetal hemoglobin (HbF) induction in mobilized CD34+ HSPC from healthy individuals during erythroid differentiation, F-cells by flow cytometry. The data set is classed as cell-based. Particulars: healthy donors; for fetal hemoglobin induction, F-cell (HbF+) frequency in enucleated GlyA+ cells: vs DMSO or single agents; for frequency of F-cells (HbF+): compared to vehicle (DMSO). On the procedure:
Mobilized CD34+ Human Stem/Progenitor Cells (HSPC) from healthy individuals were cultured for 3 days in a maintenance media consisting of X-VIVO 10 (VWR), 100 U/mL penicillin-streptomycin (ThermoFisher), 2 mM L-glutamine (Fisher Scientific), 100 ng/mL Recombinant Human Stem Cell Factor (SCF), 100 ng/mL Recombinant Human Thrombopoietin (TPO) and 100 ng/mL Recombinant Human Flt-3 Ligand (Flt-3L) (all three from ThermoFisher). Cells were differentiated into erythroid cells using a three-step differentiation protocol developed by the Luc Douay group (Giarratana et al. 2005). […] On day 7, cells were transferred to step 2 media, a step 1 media without hydrocortisone and IL-3, and cultured for 3-4 days. Then cells were cultured for 8-9 days in step 3 media, a step 2 media without SCF. […] To determine the percentage of HbF-positive cells (F-cells), differentiate cells were fixed and permeabilized using a fixation kit (ThermoFisher). Cells were stained with PE-Cy7-conjugated anti-CD235 or PE-conjugated anti-CD71 antibodies. HbF levels were detected using Allophycocyanin (APC)-conjugated anti-HbF antibody (ThermoFisher). The acquisition of stained cells was performed on BD FACSCanto™ and the analysis was run using FlowJo™ Software.
Human CD34+ cells were exposed to β1-selective AMPK activators and pan-AMPK activators during the 21-day differentiation process. To assess fetal hemoglobin expression level, cells were fixed and stained with CD235a, CD71 and fetal hemoglobin antibodies for flowcytometry analysis.
After 14 days of differentiation, cells were fixed and stained with CD235a, CD71 and fetal hemoglobin antibodies for flowcytometry analysis.
On the technique in general: Flow cytometry measures light scatter and fluorescence of single cells or particles in a stream.

The subject of another data set is fetal hemoglobin protein. Nature of the data set: Human fetal hemoglobin protein in Townes mice bone marrow by flow cytometry, 15-day study. The class given is in vivo, mouse. Conditions: HbSS Townes mice, 100 mg/kg PO QD 15 days, vs vehicle.
The test system of data set [2] is HBG (human gamma-globin) mRNA. The experiment in a line: gamma-globin (HBG) mRNA in Townes mouse bone marrow by qRT-PCR. The class given is in vivo. Conditions: HbAA mice bone marrow, 2 days of exposure, 100 mg/kg. As for the experimental part:
Total RNA from Townes mouse bone marrow cells was prepared using a RNeasy Mini kit (Qiagen). A quantity of 1 μg of mRNA was reverse transcribed using an iVILO Retro Transcription kit (ThermoFisher). 50 ng of the resulting cDNA was amplified by Taqman amplification in a QuantStudio thermocycler (Life Technologies) using HBG (human 7-globin primers) as gene of interest, and GAPDH (mouse gapdh primers) as a housekeeping gene (Life Technologies). The delta Ct was calculated and difference in mRNA expression was expressed as a fold-change to vehicle condition.

The subject of data set [3] is human CD34+ cells. The experiment in a line: Maturation of CD34+ cells to erythrocytes: enucleation (NucRed) and markers CD71/CD235a by flow cytometry. The data set is classed as cell-based. On the procedure:
During human CD34+ cells differentiation, maturation is measured by quantification of enucleation and expression of markers CD71 and CD235a, and assessed by flowcytometry. […] As well, cells were stained for markers CD235a and CD71. The acquisition was performed on BD FACSCanto™ and the analysis was done using FlowJo™ Software.

In data set [4] the test system is human CD34+ cells from sickle cell donors. The experiment in a line: Fetal hemoglobin induction in CD34+ cells from patients with sickle cell disease, 14-day differentiation. The class given is cell-based. Particulars: 14 days of differentiation, vs DMSO. From the text: To measure the effect of AMPK activators on fetal hemoglobin induction in CD34+ cells from patients with sickle cell disease, circulating CD34+ progenitor cells were isolated from total blood obtained from a sickle cell patients, by performing a positive selection for CD34+ cells with magnetic beads (Miltenyi Biotec). Purified CD34+ cells were differentiated for 14 days. After differentiation, cells were fixed and stained with CD235a, CD71 and fetal hemoglobin antibodies for flowcytometry analysis.

For data set [5], the system named is Reactive Oxidative Species (ROS). Nature of the data set: Reactive Oxidative Species (ROS) in bone marrow from Townes SCD mice by flow cytometry. The data set is classed as in vivo, mouse. Conditions: 100 mg/kg PO QD 15 days, vs HbSS mice treated with vehicle.
The nature of data set [6]: 7-day toxicological study in rats, hematological erythroid parameters. The class given is in vivo, Crl:CD (Sprague Dawley) rats. Conditions: rats, 100, 300 and 1000 mg/kg/day PO QD 7 days, blood on day 8. As for the experimental part:
On day 8, blood samples were drawn and complete blood counts (CBC) were tested on a hematology analyzer to determine red blood cell counts (10^6 RBC/μL), hemoglobin (Hb, g/dL) and hematocrit (HCT, %).

In another data set the test system is M1 macrophages. The experiment in a line: Macrophage polarization to pro-inflammatory M1 phenotype, markers by flow cytometry. The data set is classed as cell-based, human. Particulars: M-CSF polarized macrophages activated by IFN-γ or LPS for 24 h. On the procedure:
M1 macrophages were induced by stimulation with M-CSF (50 ng/mL) for 6 days, then activated by IFN-7 or LPS for 24 h, fixed, stained for M1 polarization markers CD38, CD64, CD86 and CD80 and acquired by flowcytometry.

For data set [7], the system named is Nrf2-oxidative stress response pathway. Nature of the data set: Transcriptomic and proteomic analysis of human CD34+ cells differentiated 14 days (correlation study, IPA). Particulars: 3 healthy donors. The data set is classed as cell-based. As for the experimental part: At day 14, RNA was extracted with Trizol reagent (Invitrogen). DNase treatment, RNA integrity and quantification, libraries generation and sequencing (Illumina HiSeq platforms HiSeq 2500) were realized according to Genewiz protocol (South Plainfield, NJ). Concerning the proteomic analysis, proteins were extracted from the same CD34+ cells used for the transcriptomic analysis. Samples preparation, proteins digestion, peptides TMT labeling and proteomic analysis were performed according to IQ Proteomics (Cambridge, MA). Bioinformatics analysis have been conducted to determine the differential expression of mRNA and proteins, and a correlation study using the differential expression from the transcriptomic analysis and the differential expression from the proteomics analysis has been run. […] SQSTM1 is known to activate Nrf2 by inhibiting Keapl, and Nrf2 pathway is known to induce HO-1 for antioxidative function in cells.

In data set [8] the test system is AMPK. Nature of the data set: AMPK target engagement: Thr172 phosphorylation of alpha-AMPK (Alpha SureFire Ultra Multiplex) in undifferentiated HUDEP-2 cells. The class given is cell-based, human. On the procedure: Phosphorylation of AMPK at threonine 172 (Thr172) on the α-subunit of AMPK was assessed by […] using the Alpha SureFire Ultra Multiplex p-AMPKα1/2 (Thr172)+Total AMPKα1/2 Assay Kit from Perkin Elmer as a target engagement assay. The assay kit contains antibodies, coupled with fluorophore Europium, which recognize the phospho-Thr172 epitope and a distal epitope on α-AMPK of human or mouse AMPK. The kit also contains antibodies coupled with the fluorophore Terbium to measure the total levels of AMPK. […] As to the human HUDEP-2 cells line, cells were undifferentiated during exposure to AMPK activators. According to the time course, cells were collected and lysed using RIPA buffer mixed with a phosphatase and protease inhibitors cocktail (Thermofisher). Phospho-AMPK signal was divided by total AMPK signal and the ratio was normalized to the total protein concentration. Samples protein concentrations were measured with the Pierce BSA Protein Assay (ThermoFisher).

The target of data set [9] is T1, AMPK (Homo sapiens, UniProt Q13131+Q9Y478).
T1 construct: endogenous in cells; host or cells: mobilized human CD34+ HSPC from a healthy donor, day 11 of erythroid differentiation
Nature of the data set: AMPK target engagement: Thr172 phosphorylation of alpha-AMPK (Alpha SureFire Ultra Multiplex) in CD34+ cells at day 11 of differentiation. The class given is cell-based. Particulars: differentiated CD34+ cells.

T1 sequence (Q13131 whole entry): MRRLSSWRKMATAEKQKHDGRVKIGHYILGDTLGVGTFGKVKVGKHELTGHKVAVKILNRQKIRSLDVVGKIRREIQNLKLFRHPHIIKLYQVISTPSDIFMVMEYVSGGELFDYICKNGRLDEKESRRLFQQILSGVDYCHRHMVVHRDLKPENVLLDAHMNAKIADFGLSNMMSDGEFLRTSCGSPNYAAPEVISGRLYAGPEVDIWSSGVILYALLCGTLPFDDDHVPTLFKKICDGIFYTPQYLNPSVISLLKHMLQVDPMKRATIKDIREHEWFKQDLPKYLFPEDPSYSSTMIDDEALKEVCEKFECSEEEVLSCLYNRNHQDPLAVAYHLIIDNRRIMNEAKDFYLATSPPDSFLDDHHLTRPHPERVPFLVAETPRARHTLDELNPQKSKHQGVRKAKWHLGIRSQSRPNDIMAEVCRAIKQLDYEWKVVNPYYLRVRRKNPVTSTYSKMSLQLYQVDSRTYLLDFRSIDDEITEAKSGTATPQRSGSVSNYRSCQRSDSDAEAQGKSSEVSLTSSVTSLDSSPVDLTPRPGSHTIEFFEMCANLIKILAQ
T1 sequence (Q9Y478 2-270): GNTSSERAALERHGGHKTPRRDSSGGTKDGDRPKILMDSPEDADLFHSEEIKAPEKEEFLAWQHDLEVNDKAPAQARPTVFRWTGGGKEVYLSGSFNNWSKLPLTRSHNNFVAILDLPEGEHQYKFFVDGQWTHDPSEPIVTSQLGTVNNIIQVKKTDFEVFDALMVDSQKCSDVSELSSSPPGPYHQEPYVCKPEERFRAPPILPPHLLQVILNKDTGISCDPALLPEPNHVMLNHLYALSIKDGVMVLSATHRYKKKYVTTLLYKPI
T1 sequence (P54619 whole entry partner): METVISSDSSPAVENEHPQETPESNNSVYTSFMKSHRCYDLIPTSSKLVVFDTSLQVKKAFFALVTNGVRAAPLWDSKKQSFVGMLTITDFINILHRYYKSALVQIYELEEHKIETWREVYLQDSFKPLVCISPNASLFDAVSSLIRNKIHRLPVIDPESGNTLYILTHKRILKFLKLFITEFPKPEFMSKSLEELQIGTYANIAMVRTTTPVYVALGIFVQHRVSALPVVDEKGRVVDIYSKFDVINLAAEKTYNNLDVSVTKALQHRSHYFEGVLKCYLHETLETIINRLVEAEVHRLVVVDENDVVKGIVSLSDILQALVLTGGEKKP
Excerpt for fetal hemoglobin protein: These mice express the genes for human HbS (homozygous HbSS), express the physiopathological phenotype of SCD and are called “HbSS-Townes mice”, whereas the control Townes mice express the genes for human HbA without the sickle mutation (homozygous HbAA), are healthy, and are called “HbAA-Townes mice” (Jackson Laboratory). These control HbAA-Townes mice were created by replacing the murine globin genes with human α-globin gene (genotype: Hba hα/hα) and linked human βA− and fetal Aγ-globins (genotype: Hbb hAγβA/hAγβA), whereas HbSS-Townes mice were created by replacing the murine adult α-globin genes with the human α-globin gene (genotype: Hba hα/hα), and the murine adult β-globin genes were replaced with human sickle βS− and fetal Aγ-globin gene fragments linked together (genotype: Hbb hAγβS/hAγβS).

On to `O=C(O)c1c[nH]c2cc(Cl)c(-c3ccc(C4(O)CCC4)cc3)cc12` [Compound 1], for which, in the data set with human CD34+ cells [1] (14 days of differentiation), the “fetal hemoglobin induction, F-cell (HbF+) frequency in enucleated GlyA+ cells” value is recorded as “increases”. For the same compound, in the data set on human CD34+ cells [1] (21 days of differentiation), the “increase of HbF+ cells compared to DMSO” value is “about 2 fold” and the “frequency of F-cells (HbF+)” value is “increase”. Also, the “fetal hemoglobin protein expression in bone marrow” value in the data set on fetal hemoglobin protein is on record as “increase”. Also, the “mRNA for human HbF (human γ-globin, HBG) increase” value in data set [2] is “not”. In addition, the “expression of differentiation markers CD71 and CD235a” value in the data set with human CD34+ cells [3] (after 14 days of differentiation) was “unchanged”. In the data set with human CD34+ cells [3] (after 21 days of differentiation), the “enucleation of CD34+ cells” value is “no effect”. Moreover, the “F-cell (HbF+) frequency in enucleated GlyA+ cells” value in [4] is reported as “increase”. In addition, in [5], the “ROS in bone marrow” value was “decrease”. In data set [6], the hematocrit result is listed as “does not reduce”, the hemoglobin entry is recorded as “does not reduce” and the “red blood cell counts (RBC)” value is reported as “does not reduce”. Also, in the data set on M1 macrophages, the “expression of proinflammatory M1 marker CD38” value is “decreased”, the “expression of proinflammatory M1 marker CD64” value was “decreased”, the “expression of proinflammatory M1 marker CD80” value is “decreased” and the “expression of proinflammatory M1 marker CD86” value is recorded as “decreased”. For the same compound, in data set [7], the “Nrf2-antioxidant response element signaling pathway (IPA of proteomics data)” value is on record as “activated”. In [7] (vs DMSO), the “HO-1 (HMOX1) protein regulation” value is “upregulated” and the SQSTM1 protein regulation entry was “upregulated”.

`N#Cc1c(O)c2c(-c3ccc(-c4ccccc4O)cc3)csc2[nH]c1=O` [Compound 2]: the “frequency of F-cells (HbF+)” value in the data set with human CD34+ cells [1] (21 days of differentiation) is “increase”. In the data set on AMPK [8], the “time of peak AMPK phosphorylation (Thr172, pAMPK/total AMPK)” value (shortened to “time … (Thr172, pAMPK/total AMPK)”) was “around 1 hours”.

Regarding `OCCOc1cc(F)c(COc2nc3nc(O[C@@H]4CO[C@H]5[C@@H]4OC[C@H]5O)[nH]c3cc2Cl)c(F)c1` [Compound 3], the “frequency of F-cells (HbF+)” value in the data set with human CD34+ cells [1] (21 days of differentiation) was “increase”. Moreover, the “time … (Thr172, pAMPK/total AMPK)” value in the data set on AMPK [8] is reported as “around 1 hours”; at AMPK [9], “around 3 hour”.

As for `COc1cccc(-n2c(=O)[nH]c3cc(Cl)n(-c4ccc(-c5cccc(OC)c5O)cc4)c3c2=O)c1` [Compound 4], the “frequency of F-cells (HbF+)” value in the data set with human CD34+ cells [1] (21 days of differentiation) was “increase”. Moreover, the “time … (Thr172, pAMPK/total AMPK)” value was “around 1 hours” in the data set on AMPK [8] and “around 3 hour” at AMPK [9].

For `NC(=O)NO` [Hydroxyurea, hydroxyurea], in the data set with human CD34+ cells [1] (14 days of differentiation), the “fetal hemoglobin induction, F-cell (HbF+) frequency in enucleated GlyA+ cells” value is listed as “increases”. Moreover, in the data set with human CD34+ cells [1] (14 days of differentiation, vs Vehicle (DMSO)), the “fold change in fetal hemoglobin expression compared to control” value is listed as 1,5 fold. Besides, the “F-cell (HbF+) frequency in enucleated GlyA+ cells” value in data set [4] was “increase”.

The values are drawn from US20230338344A1, “AMPK Activators and Methods of Use Thereof” (Bioverativ Therapeutics Inc., priority 2020, published 2023).
